Experimental data reported in ChEMBL document CHEMBL5113500, “New brefeldin A-cinnamic acid ester derivatives as potential antitumor agents: Design, synthesis and biological evaluation” (Eur J Med Chem, 2022).
Values after ≈ are worked out from the molar mass of the structure shown.

What was measured:
HepG2 [1] = assay: Antiproliferative activity against human HepG2 cells assessed as cell growth inhibition at 1 uM measured after 72 hrs by MTT assay relative to control; format: functional; details: read-out: GI
HepG2 [2] = assay: Antiproliferative activity against human HepG2 cells measured after 72 hrs by MTT assay; format: functional, cell-based; details: HepG2, 72 h
Bel-7402 = assay: Antiproliferative activity against human Bel-7402 cells measured after 72 hrs by MTT assay; format: functional, cell-based; details: Bel-7402, 72 h
HeLa = assay: Antiproliferative activity against human HeLa cells measured after 72 hrs by MTT assay; format: functional, cell-based
ECa-109 cell line = assay: Antiproliferative activity against human Eca-109 cells measured after 72 hrs by MTT assay; format: functional, cell-based; details: ECa-109, 72 h
PANC-1 = assay: Antiproliferative activity against human PANC-1 cells measured after 72 hrs by MTT assay; format: functional, cell-based; details: PANC-1, 72 h
[3] = Cytotoxicity against human L02 cells measured after 72 hrs by MTT assay; format: toxicity, cell-based
[4] = Selectivity index, ratio of IC50 for human L02 cells to IC50 for human HepG2 cells; format: toxicity; details: L02 cells and HepG2 cells, read-out: Ratio IC50
[5] = Solubility of the compound in 5% DMSO and 10% Solutol HS-15 saline solution; format: physicochemical

| SMILES | inhibition of growth at 1 µM (HepG2 [1]) | IC50 (HepG2 [2]) | IC50 (Bel-7402) | IC50 (HeLa) | IC50 (ECa-109 cell line) | IC50 (PANC-1) | IC50 at 72 h [3] | selectivity ratio [4] | solubility [5] |
| --- | --- | --- | --- | --- | --- | --- | --- | --- | --- |
| C[C@H]1CCC/C=C/[C@@H]2C[C@H](O)C[C@H]2[C@H](OC(=O)/C=C/c2cccc(F)c2)/C=C/C(=O)O1 | 68.3% | 0.49 µM | 0.81 µM | 0.7 µM | 0.95 µM | 0.36 µM |  |  |  |
| C[C@H]1CCC/C=C/[C@@H]2C[C@H](OC(=O)/C=C/c3ccc(C(F)(F)F)cc3)C[C@H]2[C@H](OC(=O)/C=C/c2ccc(C(F)(F)F)cc2)/C=C/C(=O)O1 | 4.3% |  |  |  |  |  |  |  |  |
| Cc1cccc(/C=C/C(=O)O[C@@H]2/C=C/C(=O)O[C@@H](C)CCC/C=C/[C@@H]3C[C@H](O)C[C@H]32)c1 | 77.8% | 0.56 µM | 0.75 µM | 0.87 µM | 1.09 µM | 0.37 µM |  |  |  |
| Cc1ccc(/C=C/C(=O)O[C@@H]2C[C@@H]3[C@H](/C=C/CCC[C@H](C)OC(=O)/C=C/[C@H]3OC(=O)/C=C/c3ccc(C)cc3)C2)cc1 | 5.2% |  |  |  |  |  |  |  |  |
| Cc1ccc(/C=C/C(=O)O[C@@H]2C[C@H]3[C@H](O)/C=C/C(=O)O[C@@H](C)CCC/C=C/[C@@H]3C2)cc1 | 30.8% | 2.87 µM | 2.14 µM | 1.91 µM | 12.5 µM | 1.35 µM |  |  |  |
| C[C@H]1CCC/C=C/[C@@H]2C[C@H](OC(=O)/C=C/c3ccccc3Br)C[C@H]2[C@H](OC(=O)/C=C/c2ccccc2Br)/C=C/C(=O)O1 | 3.1% |  |  |  |  |  |  |  |  |
| Cc1cccc(/C=C/C(=O)O[C@@H]2C[C@H]3[C@H](O)/C=C/C(=O)O[C@@H](C)CCC/C=C/[C@@H]3C2)c1 | 34.7% | 1.89 µM | 3.29 µM | 1.12 µM | 2.1 µM | 0.36 µM |  |  |  |
| C[C@H]1CCC/C=C/[C@@H]2C[C@H](O)C[C@H]2[C@H](OC(=O)/C=C/c2ccccc2)/C=C/C(=O)O1 | 64.7% | 0.57 µM | 0.97 µM | 1.17 µM | 1.12 µM | 0.42 µM |  |  |  |
| Cc1ccc(/C=C/C(=O)O[C@@H]2/C=C/C(=O)O[C@@H](C)CCC/C=C/[C@@H]3C[C@H](O)C[C@H]32)cc1 | 64% | 1.5 µM | 0.97 µM | 1.31 µM | 3.59 µM | 0.35 µM |  |  |  |
| C[C@H]1CCC/C=C/[C@@H]2C[C@H](OC(=O)/C=C/c3ccc(F)cc3)C[C@H]2[C@H](OC(=O)/C=C/c2ccc(F)cc2)/C=C/C(=O)O1 | 8.1% |  |  |  |  |  |  |  |  |
| C[C@H]1CCC/C=C/[C@@H]2C[C@H](OC(=O)/C=C/c3ccc(C(F)(F)F)cc3)C[C@H]2[C@H](O)/C=C/C(=O)O1 | 86.7% | 0.42 µM | 0.45 µM | 0.46 µM | 0.55 µM | 0.46 µM |  |  |  |
| C[C@H]1CCC/C=C/[C@@H]2C[C@H](OC(=O)/C=C/c3ccc(N(C)C)cc3)C[C@H]2[C@H](O)/C=C/C(=O)O1 | 47% |  |  |  |  |  |  |  |  |
| C[C@H]1CCC/C=C/[C@@H]2C[C@H](O)C[C@H]2[C@H](OC(=O)/C=C/c2cccc(Cl)c2)/C=C/C(=O)O1 | 77.4% | 0.73 µM | 0.64 µM | 0.8 µM | 0.74 µM | 0.47 µM |  |  |  |
| C[C@H]1CCC/C=C/[C@@H]2C[C@H](O)C[C@H]2[C@H](O)/C=C/C(=O)O1 [BREFELDIN A] | 94.4% | 0.18 µM | 0.17 µM | 0.07 µM | 0.14 µM | 0.08 µM | 0.1 µM | 0.56 | 1000 µg/mL (≈ 3.57 mM) |
| Cc1cccc(/C=C/C(=O)O[C@@H]2C[C@@H]3[C@H](/C=C/CCC[C@H](C)OC(=O)/C=C/[C@H]3OC(=O)/C=C/c3cccc(C)c3)C2)c1 | 6% |  |  |  |  |  |  |  |  |
| Cc1ccccc1/C=C/C(=O)O[C@@H]1/C=C/C(=O)O[C@@H](C)CCC/C=C/[C@@H]2C[C@H](O)C[C@H]21 | 37.1% | 1.86 µM | 1.77 µM | 0.75 µM | 2.68 µM | 0.63 µM |  |  |  |
| C[C@H]1CCC/C=C/[C@@H]2C[C@H](OC(=O)/C=C/c3cccc(F)c3)C[C@H]2[C@H](OC(=O)/C=C/c2cccc(F)c2)/C=C/C(=O)O1 | 6.3% |  |  |  |  |  |  |  |  |
| C[C@H]1CCC/C=C/[C@@H]2C[C@H](OC(=O)/C=C/c3ccc4c(c3)OCO4)C[C@H]2[C@H](O)/C=C/C(=O)O1 | 3.7% |  |  |  |  |  |  |  |  |
| C[C@H]1CCC/C=C/[C@@H]2C[C@H](OC(=O)/C=C/c3ccccc3)C[C@H]2[C@H](OC(=O)/C=C/c2ccccc2)/C=C/C(=O)O1 | 20.4% |  |  |  |  |  |  |  |  |

| SMILES | inhibition of growth at 1 µM (HepG2 [1]) | IC50 (HepG2 [2]) | IC50 (Bel-7402) | IC50 (HeLa) | IC50 (ECa-109 cell line) | IC50 (PANC-1) | IC50 at 72 h [3] | selectivity ratio [4] | solubility [5] |
| --- | --- | --- | --- | --- | --- | --- | --- | --- | --- |
| Cc1ccccc1/C=C/C(=O)O[C@@H]1C[C@@H]2[C@H](/C=C/CCC[C@H](C)OC(=O)/C=C/[C@H]2OC(=O)/C=C/c2ccccc2C)C1 | 1.7% |  |  |  |  |  |  |  |  |
| C[C@H]1CCC/C=C/[C@@H]2C[C@H](OC(=O)/C=C/c3ccc(F)cc3)C[C@H]2[C@H](O)/C=C/C(=O)O1 | 69.7% | 0.98 µM | 1.04 µM | 3.96 µM | 2.86 µM | 0.67 µM |  |  |  |
| C[C@H]1CCC/C=C/[C@@H]2C[C@H](OC(=O)/C=C/c3cccc(Cl)c3)C[C@H]2[C@H](OC(=O)/C=C/c2cccc(Cl)c2)/C=C/C(=O)O1 | 6.4% |  |  |  |  |  |  |  |  |
| C[C@H]1CCC/C=C/[C@@H]2C[C@H](OC(=O)/C=C/c3cccc(F)c3)C[C@H]2[C@H](O)/C=C/C(=O)O1 | 71.1% | 0.45 µM | 0.92 µM | 2.74 µM | 2.14 µM | 0.61 µM |  |  |  |
| COc1cc(/C=C/C(=O)O[C@@H]2C[C@H]3[C@H](O)/C=C/C(=O)O[C@@H](C)CCC/C=C/[C@@H]3C2)cc(OC)c1OC | 4.2% |  |  |  |  |  |  |  |  |
| C[C@H]1CCC/C=C/[C@@H]2C[C@H](OC(=O)/C=C/c3ccccc3)C[C@H]2[C@H](O)/C=C/C(=O)O1 | 62.9% | 1.25 µM | 1.11 µM | 0.53 µM | 1.21 µM | 0.57 µM |  |  |  |
| C[C@H]1CCC/C=C/[C@@H]2C[C@H](OC(=O)/C=C/c3cccc(Cl)c3)C[C@H]2[C@H](O)/C=C/C(=O)O1 | 68.1% | 0.89 µM | 0.72 µM | 1.1 µM | 1.45 µM | 0.66 µM |  |  |  |
| C[C@H]1CCC/C=C/[C@@H]2C[C@H](O)C[C@H]2[C@H](OC(=O)/C=C/c2ccc(C(F)(F)F)cc2)/C=C/C(=O)O1 | 74.9% | 0.51 µM | 0.61 µM | 0.34 µM | 0.6 µM | 0.58 µM |  |  |  |
| C[C@H]1CCC/C=C/[C@@H]2C[C@H](OC(=O)/C=C/c3ccccc3F)C[C@H]2[C@H](OC(=O)/C=C/c2ccccc2F)/C=C/C(=O)O1 | 8.4% |  |  |  |  |  |  |  |  |
| C[C@H]1CCC/C=C/[C@@H]2C[C@H](O)C[C@H]2[C@H](OC(=O)/C=C/c2ccccc2Br)/C=C/C(=O)O1 | 72.5% | 0.52 µM | 0.64 µM | 0.74 µM | 1.14 µM | 0.51 µM |  |  |  |
| C[C@H]1CCC/C=C/[C@@H]2C[C@H](O)C[C@H]2[C@H](OC(=O)/C=C/c2ccc3c(c2)OCO3)/C=C/C(=O)O1 | 54.5% | 1.35 µM | 1.07 µM | 1.65 µM | 2.2 µM | 0.87 µM |  |  |  |
| COc1cc(/C=C/C(=O)O[C@@H]2/C=C/C(=O)O[C@@H](C)CCC/C=C/[C@@H]3C[C@H](O)C[C@H]32)cc(OC)c1OC | 65.1% | 0.72 µM | 1.37 µM | 1.58 µM | 2.1 µM | 0.82 µM |  |  |  |
| C[C@H]1CCC/C=C/[C@@H]2C[C@H](O)C[C@H]2[C@H](OC(=O)/C=C/c2ccccc2F)/C=C/C(=O)O1 | 58.3% | 1.02 µM | 1.06 µM | 1.05 µM | 1.66 µM | 1 µM |  |  |  |
| C[C@H]1CCC/C=C/[C@@H]2C[C@H](OC(=O)/C=C/c3ccccc3Br)C[C@H]2[C@H](O)/C=C/C(=O)O1 | 70.5% | 0.41 µM | 0.89 µM | 0.57 µM | 0.5 µM | 0.28 µM |  |  |  |
| C[C@H]1CCC/C=C/[C@@H]2C[C@H](OC(=O)/C=C/c3ccc4c(c3)OCO4)C[C@H]2[C@H](OC(=O)/C=C/c2ccc3c(c2)OCO3)/C=C/C(=O)O1 | 4.3% |  |  |  |  |  |  |  |  |
| COc1cc(/C=C/C(=O)O[C@@H]2C[C@@H]3[C@H](/C=C/CCC[C@H](C)OC(=O)/C=C/[C@H]3OC(=O)/C=C/c3ccc(OCc4ccccc4)c(OC)c3)C2)ccc1OCc1ccccc1 | 2.7% |  |  |  |  |  |  |  |  |
| C[C@H]1CCC/C=C/[C@@H]2C[C@H](O)C[C@H]2[C@H](OC(=O)/C=C/c2ccc(F)cc2)/C=C/C(=O)O1 | 62% | 1.02 µM | 0.79 µM | 0.75 µM | 1.14 µM | 0.57 µM |  |  |  |
| C[C@H]1CCC/C=C/[C@@H]2C[C@H](OC(=O)/C=C/c3ccccc3F)C[C@H]2[C@H](O)/C=C/C(=O)O1 | 71.1% | 0.48 µM | 0.82 µM | 2.79 µM | 2.42 µM | 0.86 µM |  |  |  |
| Cc1ccccc1/C=C/C(=O)O[C@@H]1C[C@H]2[C@H](O)/C=C/C(=O)O[C@@H](C)CCC/C=C/[C@@H]2C1 | 28.9% | 2.98 µM | 2.32 µM | > 4 µM | > 4 µM | 2.79 µM |  |  |  |
